Results as given in the CheMixHub viscosity set.
± gives the uncertainty stated by the source.

Assay: xn = mol fraction of the nth substance listed

CCCCCCCCCO + COC(=O)OC
Conditions	viscosity [mPa·s]
293.15 K, 101 kPa, x1 = 0.008	0.63
293.15 K, 101 kPa, x2 = 0.06435	9.044
293.15 K, 101 kPa, x2 = 0.1251	7.282
293.15 K, 101 kPa, x2 = 0.2318	5.067
293.15 K, 101 kPa, x2 = 0.322	3.834
293.15 K, 101 kPa, x2 = 0.4095	2.962
293.15 K, 101 kPa, x2 = 0.4994	2.281
293.15 K, 101 kPa, x2 = 0.6032	1.706
293.15 K, 101 kPa, x2 = 0.699	1.3
293.15 K, 101 kPa, x2 = 0.7961	0.991
293.15 K, 101 kPa, x2 = 0.8901	0.776
303.15 K, 100 kPa, x2 = 0.1	5.632 ± 0.17
303.15 K, 100 kPa, x2 = 0.1999	4.161 ± 0.13
303.15 K, 100 kPa, x2 = 0.3	3.081 ± 0.095
303.15 K, 100 kPa, x2 = 0.4	2.342 ± 0.072
303.15 K, 100 kPa, x2 = 0.5	1.81 ± 0.056
303.15 K, 100 kPa, x2 = 0.6	1.384 ± 0.043
303.15 K, 100 kPa, x2 = 0.7	1.06 ± 0.033
303.15 K, 100 kPa, x2 = 0.8	0.831 ± 0.026
303.15 K, 100 kPa, x2 = 0.9	0.658 ± 0.02
303.15 K, 101 kPa, x1 = 0.00584	0.55
303.15 K, 101 kPa, x2 = 0.04989	6.721
303.15 K, 101 kPa, x2 = 0.1183	5.358
303.15 K, 101 kPa, x2 = 0.2164	3.942
303.15 K, 101 kPa, x2 = 0.3115	2.991
303.15 K, 101 kPa, x2 = 0.4106	2.28
303.15 K, 101 kPa, x2 = 0.4935	1.832
303.15 K, 101 kPa, x2 = 0.6036	1.368
303.15 K, 101 kPa, x2 = 0.7016	1.059
303.15 K, 101 kPa, x2 = 0.7951	0.835
303.15 K, 101 kPa, x2 = 0.8982	0.657
308.15 K, 100 kPa, x2 = 0.1	4.801 ± 0.15
308.15 K, 100 kPa, x2 = 0.1999	3.592 ± 0.11
308.15 K, 100 kPa, x2 = 0.3	2.702 ± 0.083
308.15 K, 100 kPa, x2 = 0.4	2.074 ± 0.064
308.15 K, 100 kPa, x2 = 0.5	1.627 ± 0.05
308.15 K, 100 kPa, x2 = 0.6	1.253 ± 0.039
308.15 K, 100 kPa, x2 = 0.7	0.972 ± 0.03
308.15 K, 100 kPa, x2 = 0.8	0.769 ± 0.024
308.15 K, 100 kPa, x2 = 0.9	0.617 ± 0.019
313.15 K, 100 kPa, x2 = 0.1	4.133 ± 0.13
313.15 K, 100 kPa, x2 = 0.1999	3.123 ± 0.096
313.15 K, 100 kPa, x2 = 0.3	2.398 ± 0.074
313.15 K, 100 kPa, x2 = 0.4	1.848 ± 0.057
313.15 K, 100 kPa, x2 = 0.5	1.467 ± 0.045
313.15 K, 100 kPa, x2 = 0.6	1.141 ± 0.035
313.15 K, 100 kPa, x2 = 0.7	0.893 ± 0.028
313.15 K, 100 kPa, x2 = 0.8	0.713 ± 0.022
313.15 K, 100 kPa, x2 = 0.9	0.579 ± 0.018
313.15 K, 101 kPa, x1 = 0.00538	0.492
313.15 K, 101 kPa, x2 = 0.06799	4.566
313.15 K, 101 kPa, x2 = 0.1245	3.835
313.15 K, 101 kPa, x2 = 0.2254	2.876
313.15 K, 101 kPa, x2 = 0.2945	2.39
313.15 K, 101 kPa, x2 = 0.433	1.677
313.15 K, 101 kPa, x2 = 0.5255	1.342
313.15 K, 101 kPa, x2 = 0.6009	1.118
313.15 K, 101 kPa, x2 = 0.6997	0.882
313.15 K, 101 kPa, x2 = 0.8024	0.702
313.15 K, 101 kPa, x2 = 0.9014	0.571
318.15 K, 100 kPa, x2 = 0.1	3.586 ± 0.11
318.15 K, 100 kPa, x2 = 0.1999	2.735 ± 0.084
318.15 K, 100 kPa, x2 = 0.3	2.137 ± 0.066
318.15 K, 100 kPa, x2 = 0.4	1.662 ± 0.051
318.15 K, 100 kPa, x2 = 0.5	1.317 ± 0.041
318.15 K, 100 kPa, x2 = 0.6	1.04 ± 0.032
318.15 K, 100 kPa, x2 = 0.7	0.823 ± 0.025
318.15 K, 100 kPa, x2 = 0.8	0.665 ± 0.021
318.15 K, 100 kPa, x2 = 0.9	0.545 ± 0.017
323.15 K, 100 kPa, x2 = 0.1	3.119 ± 0.096
323.15 K, 100 kPa, x2 = 0.1999	2.397 ± 0.074
323.15 K, 100 kPa, x2 = 0.3	1.888 ± 0.058
323.15 K, 100 kPa, x2 = 0.4	1.494 ± 0.046
323.15 K, 100 kPa, x2 = 0.5	1.199 ± 0.037
323.15 K, 100 kPa, x2 = 0.6	0.951 ± 0.029
323.15 K, 100 kPa, x2 = 0.7	0.763 ± 0.024
323.15 K, 100 kPa, x2 = 0.8	0.621 ± 0.019
323.15 K, 100 kPa, x2 = 0.9	0.514 ± 0.016

CCCCCCCC[n+]1ccn(C)c1.F[B-](F)(F)F + COC(C)=O
Conditions	viscosity [mPa·s]
298.15 K, 101 kPa, x1 = 0.7036	69.93 ± 20

C1CCCCCCCCCCC1 + Cc1ccccc1
303 K, 101 kPa
Conditions	viscosity [mPa·s]
x1 = 0.0186	0.5245 ± 0.0045
x2 = 0.8099	0.6724 ± 0.0055
x2 = 0.9012	0.5699 ± 0.0048
x2 = 0.9426	0.5336 ± 0.0045

Cc1cccc2ccccc12 + Cc1ccccc1
viscosity [mPa·s], 100 kPa
Conditions	x2 = 0.2784	x2 = 0.6068	x2 = 0.8224
298.15 K	1.646 ± 0.16	1.036 ± 0.099	0.731 ± 0.069
313.15 K	1.285 ± 0.12	0.841 ± 0.08	0.608 ± 0.058

O=[N+]([O-])c1ccccc1O + Cc1ccccc1
viscosity [mPa·s], 101 kPa
Conditions	303.15 K	308.15 K	313.15 K	318.15 K	323.15 K
x1 = 0.5473	1.278 ± 0.032	1.182 ± 0.03	1.088 ± 0.027	1.011 ± 0.025	0.942 ± 0.024
x1 = 0.7633	–	1.838 ± 0.046	1.672 ± 0.042	1.528 ± 0.039	1.411 ± 0.036

CC1CCCCC1=O (stereo not given) + NC=O
viscosity [mPa·s], 100 kPa
Conditions	x1 = 0.1005	x1 = 0.1979	x1 = 0.2917	x1 = 0.4002	x1 = 0.5089	x1 = 0.6019	x1 = 0.6999	x1 = 0.8001	x1 = 0.9001
303.15 K	2.822 ± 0.065	2.768 ± 0.063	2.712 ± 0.062	2.644 ± 0.06	2.575 ± 0.059	2.513 ± 0.057	2.446 ± 0.056	2.375 ± 0.054	2.302 ± 0.052
308.15 K	2.583 ± 0.059	2.549 ± 0.059	2.513 ± 0.058	2.468 ± 0.056	2.42 ± 0.055	2.378 ± 0.054	2.331 ± 0.053	2.281 ± 0.052	2.228 ± 0.051
313.15 K	2.346 ± 0.054	2.332 ± 0.054	2.315 ± 0.053	2.291 ± 0.052	2.265 ± 0.052	2.242 ± 0.051	2.217 ± 0.05	2.188 ± 0.05	2.154 ± 0.049
